Tests used:
[1] = tested on: canonical Wnt-β-catenin cellular messaging system (16xTCF-TK-FireFly-Luci reporter, Wnt3a and Dkk1 co-transfected U2OS cells); test: Functional Dkk1-LRP5-TCF-Luciferase Assay in U2OS Cells (table columns: A=MAX FOLD Induction/DMSO CONTROL; B=fold induction @ 2.0 uM; C=fold induction @ 20.0 uM); format: cell-based, Human; conditions: maximum fold induction over DMSO control
Summary of the method: (§1)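 U2OS cells co-transfected with 16×TCF-TK-firefly luciferase, TK-Renilla control, Wnt3a and Dkk1, then frozen; thawed cells (~5,000/well, ~5% FBS, phenol red-free RPMI) incubated ~20 h at 37° C. with compound (0.25% DMSO). Firefly luminescence (Bright-Glo) normalized to DMSO mean as fold induction.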

[2] = as above; format: cell-based, Human; conditions: Homo sapiens; for fold induction at 2 µM / fold induction at 20 µM: U2OS; for fold induction at 2 µM: 2.0 uM compound; for fold induction at 20 µM: 20.0 uM compound; for EC50: U2OS cells, TCF-luciferase reporter
Summary of the method: as §1

Structure (SMILES) | A = MAX FOLD Induction/DMSO CONTROL [1] | EC50 [2] | fold induction at 2 µM [2] | fold induction at 20 µM [2]
Cc1nc2c(-c3ccc4ccccc4c3)ccnc2n1[C@@H]1CCCNC1 [2-methyl-7-(2-naphthyl)-3-[(3R)-piperidin-3-yl]-3H-imidazo[4,5-b]pyridine] | 3.570 | 2680 nM | 2.74 | 0.05
Cc1nc2c(-c3ccc4ccccc4c3)ccnc2n1[C@H]1CCCNC1 [2-methyl-7-(2-naphthyl)-3-[(3S)-piperidin-3-yl]-3H-imidazo[4,5-b]pyridine] | 1.910 |  | 2.12 | 0.02
Cc1nc2c(-c3ccc4ccccc4c3)ccnc2n1C1CCNCC1 [2-methyl-7-(2-naphthyl)-3-piperidin-4-yl-3H-imidazo[4,5-b]pyridine] | 3.215 | 895 nM | 2.84 | 
CS(=O)(=O)N1CCC(n2cnc3c(-c4ccc5ccccc5c4)ccnc32)CC1 [3-[1-(methylsulfonyl)piperidin-4-yl]-7-(2-naphthyl)-3H-imidazo[4,5-b]pyridine] | 1.230 |  | 1.66 | 2.52
c1ccc2cc(-c3ccnc4c3ncn4CCCn3ccnc3)ccc2c1 [3-[3-(1H-imidazol-1-yl)propyl]-7-(2-naphthyl)-3H-imidazo[4,5-b]pyridine] | 2.870 | 10200 nM | 1.76 | 3.31
Oc1cccc(-c2nc3cc(-c4ccc5ccccc5c4)cnc3n2C2CCNCC2)c1 [3-[6-(2-naphthyl)-3-piperidin-4-yl-3H-imidazo[4,5-b]pyridin-2-yl]phenol] | 1.860 | 1220 nM |  | 

Second part, led by results:

A = MAX FOLD Induction/DMSO CONTROL [1] | EC50 [2] | Structure (SMILES) | fold induction at 2 µM [2] | fold induction at 20 µM [2]
1.580 |  | c1c[nH]c(-c2nc3cc(-c4ccc5ccccc5c4)cnc3n2C2CCNCC2)c1 [6-(2-naphthyl)-3-piperidin-4-yl-2-(1H-pyrrol-2-yl)-3H-imidazo[4,5-b]pyridine] | 1.01 | 1.99
1.100 |  | c1cncc(-c2nc3cc(-c4ccc5ccccc5c4)cnc3n2C2CCNCC2)c1 [6-(2-naphthyl)-3-piperidin-4-yl-2-pyridin-3-yl-3H-imidazo[4,5-b]pyridine] | 1.75 | 0.005
1.930 |  | c1ccc2cc(-c3ccnc4c3ncn4CC3CCNCC3)ccc2c1 [7-(2-naphthyl)-3-(piperidin-4-ylmethyl)-3H-imidazo[4,5-b]pyridine] | 2.72 | 
3.820 | 963 nM | c1ccc2cc(-c3ccnc4c3ncn4[C@@H]3CCCNC3)ccc2c1 [7-(2-naphthyl)-3-[(3R)-piperidin-3-yl]-3H-imidazo[4,5-b]pyridine] | 3.48 | 1.4
4.260 | 3150 nM | c1ccc2cc(-c3ccnc4c3ncn4[C@@H]3CCNC3)ccc2c1 [7-(2-naphthyl)-3-[(3R)-pyrrolidin-3-yl]-3H-imidazo[4,5-b]pyridine] | 2.06 | 1.65
2.303 | 18 nM | c1ccc2cc(-c3ccnc4c3ncn4[C@H]3CCCNC3)ccc2c1 [7-(2-naphthyl)-3-[(3S)-piperidin-3-yl]-3H-imidazo[4,5-b]pyridine] | 1.02 | 0.01
2.780 |  | c1ccc2cc(-c3ccnc4c3ncn4[C@H]3CCNC3)ccc2c1 [7-(2-naphthyl)-3-[(3S)-pyrrolidin-3-yl]-3H-imidazo[4,5-b]pyridine] | 2.1 | 0.44
1.650 |  | c1ccc2cc(-c3ccnc4c3nc(-c3ccncc3)n4C3CCNCC3)ccc2c1 [7-(2-naphthyl)-3-piperidin-4-yl-2-pyridin-4-yl-3H-imidazo[4,5-b]pyridine] | 1.89 | 2.27
